21 compounds from ChEMBL document CHEMBL5291721, “A preclinical secondary pharmacology resource illuminates target-adverse drug reaction associations of marketed drugs” (Nat Commun, 2023) can be followed below.

The target of test [1] is 3',5'-cyclic-AMP phosphodiesterase 4D (Homo sapiens, UniProt Q08499). The format is functional.
In test [2] the target is T1, Prostaglandin G/H synthase 1 (Rattus norvegicus, UniProt Q63921).
T1 sequence (Q63921 whole entry): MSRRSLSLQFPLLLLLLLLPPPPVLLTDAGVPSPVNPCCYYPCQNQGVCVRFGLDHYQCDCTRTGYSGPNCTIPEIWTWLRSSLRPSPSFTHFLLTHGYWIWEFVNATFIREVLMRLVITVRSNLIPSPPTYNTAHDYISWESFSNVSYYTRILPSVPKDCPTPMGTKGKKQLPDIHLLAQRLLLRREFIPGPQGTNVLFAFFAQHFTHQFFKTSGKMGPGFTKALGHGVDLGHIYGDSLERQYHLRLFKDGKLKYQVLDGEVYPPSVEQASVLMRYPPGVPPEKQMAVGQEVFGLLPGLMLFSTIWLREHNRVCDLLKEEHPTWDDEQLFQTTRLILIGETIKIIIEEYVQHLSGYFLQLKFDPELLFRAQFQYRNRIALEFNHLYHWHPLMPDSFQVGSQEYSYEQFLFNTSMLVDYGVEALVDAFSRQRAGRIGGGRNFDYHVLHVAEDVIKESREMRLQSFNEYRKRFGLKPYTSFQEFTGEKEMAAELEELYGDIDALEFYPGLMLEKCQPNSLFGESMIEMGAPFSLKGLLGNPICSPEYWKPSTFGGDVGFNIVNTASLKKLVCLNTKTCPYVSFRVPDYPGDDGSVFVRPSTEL
In kind it is functional.

Another test concerns the target Mu-type opioid receptor (Homo sapiens, UniProt P35372).
The target in test [3] is Sodium-dependent noradrenaline transporter (Homo sapiens, UniProt P23975).
Sodium-dependent noradrenaline transporter, sequence (P23975 whole entry): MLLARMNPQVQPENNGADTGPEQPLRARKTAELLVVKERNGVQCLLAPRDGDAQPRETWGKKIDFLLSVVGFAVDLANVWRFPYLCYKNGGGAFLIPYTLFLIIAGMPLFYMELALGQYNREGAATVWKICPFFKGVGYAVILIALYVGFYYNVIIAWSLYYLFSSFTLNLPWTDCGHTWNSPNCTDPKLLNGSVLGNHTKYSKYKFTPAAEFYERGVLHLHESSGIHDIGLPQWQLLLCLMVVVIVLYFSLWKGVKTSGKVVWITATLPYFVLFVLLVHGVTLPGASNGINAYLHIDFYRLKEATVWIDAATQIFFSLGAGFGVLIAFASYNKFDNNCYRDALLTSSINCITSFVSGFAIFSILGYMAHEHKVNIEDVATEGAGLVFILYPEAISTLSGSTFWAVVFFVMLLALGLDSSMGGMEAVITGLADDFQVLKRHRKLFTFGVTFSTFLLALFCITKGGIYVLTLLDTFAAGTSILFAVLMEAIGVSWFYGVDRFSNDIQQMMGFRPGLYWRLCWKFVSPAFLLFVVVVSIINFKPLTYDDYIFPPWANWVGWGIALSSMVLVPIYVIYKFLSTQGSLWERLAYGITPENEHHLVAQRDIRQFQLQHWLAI
The next test has as its target T2, Progesterone receptor (Homo sapiens, UniProt P06401).
T2 sequence (P06401 whole entry): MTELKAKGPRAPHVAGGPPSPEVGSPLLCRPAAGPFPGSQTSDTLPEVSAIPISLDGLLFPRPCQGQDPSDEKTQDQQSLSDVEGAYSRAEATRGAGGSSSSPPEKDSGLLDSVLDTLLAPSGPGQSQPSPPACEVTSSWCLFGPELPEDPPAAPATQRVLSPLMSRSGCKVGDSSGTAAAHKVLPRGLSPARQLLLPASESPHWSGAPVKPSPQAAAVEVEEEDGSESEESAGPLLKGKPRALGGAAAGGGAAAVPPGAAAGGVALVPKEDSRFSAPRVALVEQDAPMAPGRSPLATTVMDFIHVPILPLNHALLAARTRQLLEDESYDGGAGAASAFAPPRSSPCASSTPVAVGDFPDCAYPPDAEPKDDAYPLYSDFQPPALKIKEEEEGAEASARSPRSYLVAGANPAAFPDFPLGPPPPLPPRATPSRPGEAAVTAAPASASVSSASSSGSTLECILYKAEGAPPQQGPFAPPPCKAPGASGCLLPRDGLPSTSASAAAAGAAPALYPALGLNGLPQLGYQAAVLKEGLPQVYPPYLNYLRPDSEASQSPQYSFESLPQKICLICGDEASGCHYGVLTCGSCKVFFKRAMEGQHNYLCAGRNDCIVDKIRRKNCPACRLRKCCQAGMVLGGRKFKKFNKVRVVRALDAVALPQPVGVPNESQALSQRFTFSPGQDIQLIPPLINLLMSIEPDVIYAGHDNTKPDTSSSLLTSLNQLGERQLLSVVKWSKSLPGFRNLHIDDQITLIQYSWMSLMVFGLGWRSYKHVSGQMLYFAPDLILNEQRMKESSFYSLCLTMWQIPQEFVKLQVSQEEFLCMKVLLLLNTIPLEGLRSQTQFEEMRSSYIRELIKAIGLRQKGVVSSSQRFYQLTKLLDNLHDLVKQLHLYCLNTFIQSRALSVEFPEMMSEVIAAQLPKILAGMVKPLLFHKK

For the next test, the target named is D(3) dopamine receptor (Homo sapiens, UniProt P35462).
D(3) dopamine receptor, sequence (P35462 whole entry): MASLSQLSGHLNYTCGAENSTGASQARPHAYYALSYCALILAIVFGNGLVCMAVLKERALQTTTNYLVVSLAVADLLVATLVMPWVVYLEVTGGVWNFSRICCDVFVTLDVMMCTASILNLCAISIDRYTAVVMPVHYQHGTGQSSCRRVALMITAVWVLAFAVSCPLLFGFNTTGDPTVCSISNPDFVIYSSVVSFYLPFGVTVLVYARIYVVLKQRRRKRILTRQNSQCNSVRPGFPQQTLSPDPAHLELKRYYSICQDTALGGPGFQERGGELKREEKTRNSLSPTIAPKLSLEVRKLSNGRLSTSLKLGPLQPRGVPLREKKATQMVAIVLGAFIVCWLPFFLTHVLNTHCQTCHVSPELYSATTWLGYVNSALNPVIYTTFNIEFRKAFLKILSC
In test [4] the target is T3, Muscarinic acetylcholine receptor M2 (Homo sapiens, UniProt P08172).
T3 sequence (P08172 whole entry): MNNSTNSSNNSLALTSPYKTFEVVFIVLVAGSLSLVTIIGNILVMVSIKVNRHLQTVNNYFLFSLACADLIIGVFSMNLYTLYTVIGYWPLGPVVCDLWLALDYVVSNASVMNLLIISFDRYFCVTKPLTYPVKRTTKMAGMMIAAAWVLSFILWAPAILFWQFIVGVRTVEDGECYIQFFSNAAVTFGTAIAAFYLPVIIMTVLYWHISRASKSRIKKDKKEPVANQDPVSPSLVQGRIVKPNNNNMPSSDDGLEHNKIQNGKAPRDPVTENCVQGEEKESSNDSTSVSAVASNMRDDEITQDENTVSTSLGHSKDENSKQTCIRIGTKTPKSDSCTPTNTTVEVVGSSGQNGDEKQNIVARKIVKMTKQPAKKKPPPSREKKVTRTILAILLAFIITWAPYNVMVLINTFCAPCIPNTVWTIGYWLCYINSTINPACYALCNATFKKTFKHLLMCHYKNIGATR

The target in a further test is Prothrombin (Homo sapiens, UniProt P00734). In kind it is functional.
Another test has as its target T4, Thromboxane A2 receptor (Homo sapiens, UniProt P21731).
T4 sequence (P21731 whole entry): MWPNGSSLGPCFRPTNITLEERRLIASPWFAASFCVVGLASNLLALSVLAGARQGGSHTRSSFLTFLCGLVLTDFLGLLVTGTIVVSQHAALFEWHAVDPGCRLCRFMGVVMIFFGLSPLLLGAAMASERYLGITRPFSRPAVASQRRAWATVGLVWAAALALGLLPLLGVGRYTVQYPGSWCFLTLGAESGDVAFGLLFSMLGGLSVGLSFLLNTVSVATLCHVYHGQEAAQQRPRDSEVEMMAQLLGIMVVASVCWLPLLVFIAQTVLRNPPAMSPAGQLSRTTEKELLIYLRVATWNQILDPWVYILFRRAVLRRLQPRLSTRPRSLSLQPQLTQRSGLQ
The format is functional, cell-based.

In general, AC50 refers to the concentration giving half of the maximal activity seen. High values mean activity only at high concentration, low ones activity at low concentration.

Bounds are passed on as bounds.
Note: assay procedure not described here.

Mu-type opioid receptor, sequence (P35372 whole entry): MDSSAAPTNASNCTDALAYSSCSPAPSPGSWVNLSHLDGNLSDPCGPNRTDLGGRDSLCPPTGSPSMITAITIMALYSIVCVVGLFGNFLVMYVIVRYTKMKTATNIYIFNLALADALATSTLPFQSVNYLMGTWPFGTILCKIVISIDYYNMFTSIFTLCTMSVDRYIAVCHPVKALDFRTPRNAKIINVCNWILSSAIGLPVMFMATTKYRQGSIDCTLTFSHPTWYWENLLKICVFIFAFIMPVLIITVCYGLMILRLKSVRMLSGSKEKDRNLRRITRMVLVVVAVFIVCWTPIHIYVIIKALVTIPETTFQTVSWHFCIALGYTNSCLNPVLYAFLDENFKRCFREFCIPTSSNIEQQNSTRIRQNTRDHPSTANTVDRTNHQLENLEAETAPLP
3',5'-cyclic-AMP phosphodiesterase 4D, sequence (Q08499 whole entry): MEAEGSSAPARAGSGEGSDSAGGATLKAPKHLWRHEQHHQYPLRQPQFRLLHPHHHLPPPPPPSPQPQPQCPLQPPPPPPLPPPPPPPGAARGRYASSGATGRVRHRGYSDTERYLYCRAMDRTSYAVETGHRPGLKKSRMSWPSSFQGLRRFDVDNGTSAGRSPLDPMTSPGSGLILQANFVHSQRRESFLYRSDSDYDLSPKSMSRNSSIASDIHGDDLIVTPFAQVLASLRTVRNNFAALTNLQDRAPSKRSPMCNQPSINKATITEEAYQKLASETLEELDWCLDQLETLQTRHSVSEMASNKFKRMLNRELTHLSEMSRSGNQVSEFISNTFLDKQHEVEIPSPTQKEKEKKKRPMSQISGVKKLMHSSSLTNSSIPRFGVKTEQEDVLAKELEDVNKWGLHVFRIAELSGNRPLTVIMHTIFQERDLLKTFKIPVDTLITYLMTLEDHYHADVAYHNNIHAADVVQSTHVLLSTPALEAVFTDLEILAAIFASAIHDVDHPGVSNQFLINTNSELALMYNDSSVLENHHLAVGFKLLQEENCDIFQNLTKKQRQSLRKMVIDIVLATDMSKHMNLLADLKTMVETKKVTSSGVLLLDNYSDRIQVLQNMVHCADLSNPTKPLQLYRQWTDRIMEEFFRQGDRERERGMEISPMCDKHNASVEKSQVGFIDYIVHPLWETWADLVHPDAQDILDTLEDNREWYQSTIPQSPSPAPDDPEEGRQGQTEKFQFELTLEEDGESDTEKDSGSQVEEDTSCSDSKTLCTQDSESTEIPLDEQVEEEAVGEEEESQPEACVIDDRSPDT

In the case of `CCOc1nc2cccc(C(=O)O)c2n1Cc1ccc(-c2ccccc2-c2nnn[nH]2)cc1`, the AC50 (in [1]; in test [2]; at Mu-type opioid receptor) was above 30 µM throughout.

For `CCOc1cc([C@@H](CS(C)(=O)=O)N2C(=O)c3cccc(NC(C)=O)c3C2=O)ccc1OC`, the AC50 (in test [2]; on Mu-type opioid receptor) was above 30 µM each time.

For the compound `Cc1nnc(SCC2=C(C(=O)O)N3C(=O)[C@@H](NC(=O)Cn4cnnn4)[C@H]3SC2)s1` [CEFAZOLIN], the AC50 is above 300 µM in test [1], 160 µM in [2] and above 300 µM on Mu-type opioid receptor.

`CC(C)(O/N=C(\C(=O)N[C@@H]1C(=O)N2C(C(=O)[O-])=C(C[n+]3ccccc3)CS[C@H]12)c1csc(N)n1)C(=O)O` [CEFTAZIDIME]: the AC50 (in test [1]; in [2]; at Mu-type opioid receptor) was above 300 µM each time.

With `CC(C)NC(=N)NC(=N)Nc1ccc(Cl)c(Cl)c1` [CHLORPROGUANIL], the AC50 in test [1] was above 30 µM; in [3], 2.89 µM; on Progesterone receptor, above 30 µM; at D(3) dopamine receptor it was above 30 µM; in test [4], 29.7 µM; at Prothrombin it was above 30 µM. Besides, the AC50 at Thromboxane A2 receptor was above 10 µM.

Turning to `CCCNC(=O)NS(=O)(=O)c1ccc(Cl)cc1` [CHLORPROPAMIDE], the AC50 (in test [1]; in test [2]; on Mu-type opioid receptor) was above 30 µM throughout.

Take `C[N+](C)(C)CCOP(=O)(O)OP(=O)([O-])OC[C@H]1O[C@@H](n2ccc(N)nc2=O)[C@H](O)[C@@H]1O` [CITICOLINE]: the AC50 (in test [1]; in [3]; on Progesterone receptor; at D(3) dopamine receptor; in test [4]; at Prothrombin) was above 30 µM throughout. For the same compound, the AC50 at Thromboxane A2 receptor was above 30 µM.

As for `Clc1ccc(Cn2c(CN3CCCC3)nc3ccccc32)cc1` [CLEMIZOLE], the figures for the AC50 (in [1]; in test [2]; on Mu-type opioid receptor) were 28 µM, above 30 µM and above 30 µM, respectively.

With `Cc1nc(Nc2ncc(C(=O)Nc3c(C)cccc3Cl)s2)cc(N2CCN(CCO)CC2)n1` [DASATINIB], the AC50 was 28 µM in test [1], above 30 µM in test [2] and above 30 µM on Mu-type opioid receptor.

For `CC(C)Cc1ccc([C@H](C)C(=O)O)cc1` [DEXIBUPROFEN], the AC50 (in [1]; on Mu-type opioid receptor) was above 30 µM each time.

Take `Cc1onc(-c2c(F)cccc2Cl)c1C(=O)N[C@@H]1C(=O)N2[C@@H]1SC(C)(C)[C@@H]2C(=O)O` [FLOXACILLIN]: the AC50 (in [1]; in test [2]; on Mu-type opioid receptor) was above 30 µM each time.

With `CC(CN1c2ccccc2Sc2ccccc21)N(C)C` (stereo not drawn) [PROMETHAZINE], the AC50 is above 30 µM in test [1]; 11.3 µM in [3]; above 30 µM in [2]; above 30 µM on Progesterone receptor; 0.46 µM on D(3) dopamine receptor; 0.03 µM in test [4]. Besides, the AC50 is above 30 µM on Prothrombin and above 3 µM at Thromboxane A2 receptor.

Consider `C[Se]CC[C@H](N)C(=O)O` [SELENOMETHIONINE], for which the AC50 (in [3]; at Progesterone receptor; at D(3) dopamine receptor; in [4]; at Prothrombin; on Thromboxane A2 receptor) was above 30 µM each time.

For `C[N+](C)(C)CCOC(=O)CCC(=O)OCC[N+](C)(C)C` [SUXAMETHONIUM], the AC50 (in test [3]; at Progesterone receptor; at D(3) dopamine receptor; in [4]; on Prothrombin; on Thromboxane A2 receptor) was above 30 µM each time.

Take `Cc1ccsc1C(=CCCN1CCC[C@@H](C(=O)O)C1)c1sccc1C` [TIAGABINE]: the AC50 (in [3]; on Progesterone receptor; on D(3) dopamine receptor; in [4]; at Prothrombin; at Thromboxane A2 receptor) was above 30 µM throughout.

Regarding `Cc1ccc(C(=O)c2ccc(CC(=O)O)n2C)cc1` [TOLMETIN], the AC50 (in test [3]; on Progesterone receptor; at D(3) dopamine receptor; in test [4]; at Prothrombin; at Thromboxane A2 receptor) was above 30 µM each time.

In the case of `Cc1ccccc1C(=O)Nc1ccc(C(=O)N2CCCC(O)c3cc(Cl)ccc32)c(C)c1` (stereo not drawn) [TOLVAPTAN], the AC50 was above 30 µM in test [3]; above 30 µM at Progesterone receptor; above 30 µM on D(3) dopamine receptor; above 30 µM in [4]; above 30 µM on Prothrombin; 7.42 µM at Thromboxane A2 receptor.

`C[C@]12C=CC(=O)C=C1CC[C@H]1[C@@H]3C[C@@H](O)[C@](O)(C(=O)CO)[C@@]3(C)C[C@H](O)[C@@]12F` [TRIAMCINOLONE]: the AC50 was above 30 µM in test [3]; 19.7 µM at Progesterone receptor; above 30 µM on D(3) dopamine receptor; above 30 µM in test [4]; above 30 µM on Prothrombin; above 30 µM at Thromboxane A2 receptor.

On to `CC(C)C[C@H](NC(=O)[C@@H](O)[C@H](N)Cc1ccccc1)C(=O)O` [UBENIMEX], for which the concentration at half-maximal activity (AC50) (in test [1]; in test [3]; in test [2]; at Progesterone receptor; at D(3) dopamine receptor; in test [4]) was above 30 µM in each case. Moreover, the AC50 on Prothrombin and on Thromboxane A2 receptor was above 30 µM throughout.

Regarding `CC[C@]12CCCN3CCc4c(n(c5ccccc45)[C@@](O)(C(=O)OC)C1)[C@@H]32` [VINCAMINE], the AC50 (in test [3]; on Progesterone receptor; at D(3) dopamine receptor; in [4]; at Prothrombin; on Thromboxane A2 receptor) was above 30 µM each time.

For `CCC1=C[C@@H]2CN(C1)Cc1c([nH]c3ccccc13)[C@@](C(=O)OC)(c1cc3c(cc1OC)N(C)[C@H]1[C@@](O)(C(=O)OC)[C@H](OC(C)=O)[C@]4(CC)C=CCN5CC[C@]31[C@@H]54)C2` [VINORELBINE], the AC50 (in [3]; on Progesterone receptor; at D(3) dopamine receptor; in test [4]; on Prothrombin; on Thromboxane A2 receptor) was above 30 µM throughout.
